For assay [1], the system named is CF mice. The assay can be described thus: Pulmonary mechanics of CF mice by forced oscillation technique (FlexiVent) after treatment with AGTR2 blocker. The assay is classed as in vivo. To be noted: 2 mg/kg per day subcutaneous, 5 days per week, age 3 to 16 weeks, assessed at 16 weeks, 2 mg/kg/day. From the text:
AGTR2 knockout mice (AT KO; dark grey bars) are indistinguishable from WT mice.
We recently used a forced mechanical oscillation procedure to evaluate pulmonary mechanics in CF mice (DF508 congenic C57bl/6). We determined that CF mice have decreased compliance and increased elastance of their overall respiratory system, along with altered airway tissue elastance, damping, and static compliance (FIG. 1). […] Taken together, these findings indicate increased impedance of the small airways in CF mice, as differences in CF mouse pulmonary mechanics were confined to the peripheral tissues, which include the distal airways and lung parenchyma itself. This is consistent with the pulmonary phenotype of CF patients, where significant increases in small airways resistance may occur even in patients with normal spirometry.
(§1) Drugs exist that are designed to specifically block the AGTR2 receptor, and we used one of these drugs to determine whether the same benefits may be achievable through pharmaceutical intervention. Briefly, CF mice were treated via subcutaneous injection of EMA200 (PD123319), available from Sigma Pharmaceuticals), at a dose of 2 mg/kg per day. The mice were treated from age 3 weeks through adulthood (16 weeks), 5 days per week. At 16 weeks, the pulmonary mechanics of the mice were assessed using the forced oscillation technique (FIG. 1).

Assay [2] concerns CF mice. The assay can be described thus: Survival and health of CF mice during the drug study. The assay is classed as in vivo. Here is the method: as §1

Consider `Cc1cc(Cn2cnc3c2CC(C(=O)O)N(C(=O)C(c2ccccc2)c2ccccc2)C3)ccc1N(C)C` (centres unmarked) [EMA200, 1-(4-Dimethylamino-3-methylphenyl)methyl-5-diphenylacetyl-4,5,6,7-tetrahy-dro-1H-imidazo[4,5-c]-pyridine-6-carboxylic acid], for which the “pulmonary mechanics / all aspects of pulmonary disease (respiratory system compliance and elastance, tissue damping, tissue elastance, static tissue compliance)” value is given as “successfully restored/prevented all aspects of pulmonary disease in CF mice” with CF mice [1] and “improved pulmonary mechanics” in the assay on CF mice [1] (listed as AGTR2 inhibitor). Also, the “shape parameter (inhalation/exhalation curve shape, K)” value with CF mice [1] is “not improved”. In the assay on CF mice [2] (6 CF mice, daily injections, saline controls 5/6 died), the “survival of CF mice” value is “all survived”. Moreover, the “general health appearance of CF mice” value in the assay on CF mice [2] (versus control untreated CF mice) is “appeared much healthier”.

The values above are taken from patent publication US10987343B2, “Compositions and methods for treating pulmonary diseases” (CASE WESTERN RESERVE UNIVERSITY, priority 2015, dated 2021).
